Experimental data from patent US20090318385A1, “Pyrazolopyride derivative and phosphodiesterase ( pde) inhibitors containing the same as active ingredient” (priority 2006, published 2009).

How the values were obtained:
[1] = system: histamine-induced bronchoconstriction; assay: Histamine-induced airway contraction reaction in guinea pigs; type: in vivo; settings: test compound 1 mg/kg i.v., histamine 12.5 μg/kg i.v., airflow 30 seconds after administration
Experimental: Guinea pigs were anesthetized with pentobarbital (30 mg/kg, i.p.). A cannula for intravenous administration, a cannula for collecting blood and measuring blood pressure, and a tracheal cannula were inserted into the left external jugular vein, right internal carotid artery, and trachea, respectively. The guinea pigs were maintained on artificial respiration under the conditions of 60 times/min and 10 mL/kg/stroke. The airflow from the side branch of the tracheal cannula was measured by a bronchospasm transducer (Ugo-Basile) and recorded on a computer via Power Lab (ADInstruments Japan). The guinea pigs were immobilized with gallamine (10 mg/kg, i.v.), and histamine was administered at 10-minute intervals (12.5 μg/kg, i.v.). After the histamine-induced bronchoconstriction was constant, one of the test compounds (1 mg/kg, i.v.) dissolved in DMSO was administered. We examined the inhibitory action of test compounds on histamine-induced bronchoconstriction 30 seconds after compounds administration. Bronchoconstriction was recorded as the value of airflow, and the results were represented by the ratio of the maximum value of the histamine-induced airflow 30 seconds after the administration to the maximum value of the airflow before the administration. When the inhibition ratio≧90%, the results were represented by “+++.” When 90%>the inhibition ratio≧70%, the results were represented by “++.” When 70%>the inhibition ratio≧30%, the results were represented by “+.”

PDE4B catalytic domain = biological target: T1, PDE4B catalytic domain (Homo sapiens, UniProt Q07343); assay: Phosphodiesterase inhibitory activity (recombinant PDE4Bcat, [3H]cAMP); type: biochemical; settings: 30° C. for 20 minutes, read-out: IC50 (μmol/L) PDE4
T1 construct: The cDNA of PDE4B catalytic domain (hereinafter abbreviated as Cat) was isolated from human RNA by RT-PCR; made in house; host or cells: Sf9 insect cells (baculovirus, Bac-to-Bac)
Excerpt: The cDNA of PDE4B catalytic domain (hereinafter abbreviated as Cat) was isolated from human RNA by RT-PCR. The isolated cDNA fragments were inserted into Sf9 insect cells using Gateway system (product of Invitrogen Corporation) and Bac-to-Bac (registered trademark) Baculovirus Expression system (product of Invitrogen Corporation) to express a target PDE protein. The recombinant PDE4Bcat was purified from the culture supernatants or cell extracts of Sf9 cells expressing high levels of the PDE protein by ion exchange chromatography and was used for the following experiments.
A 4 mmol/L solution of each test compound was serially diluted four-fold with a 15% DMSO solution to prepare solutions with concentrations of 15 nmol/L to 4 mmol/L (the final concentrations used in the experiments were 1.5 nmol/L to 400 μmol/L). 10 μL of the prepared test compound solutions, [^3H] cAMP diluted with a buffer solution (40 mmol/L Tris-HCl (pH: 7.4), 10 mmol/L MgCl2), and 40 μL of the recombinant human PDE protein (2×10^−6 units, 1 unit is defined as the amount of PDE that breaks down 1 μmol/L of cAMP in one minute under the conditions of a pH of 7.5 and 30° C.) were added to a 96-well plate. The mixtures were reacted at 30° C. for 20 minutes. Then, the resultant mixtures were reacted at 65° C. for 2 minutes. Subsequently, […] of 1 mg/mL 5′-nucleotidase (Crotalusatrox venom, product of Sigma) was added to the mixtures, and the mixtures were reacted at 30° C. for 10 minutes. After completion of the reaction, 200 μL of a solution of Dowex (300 mg/mL Dowex 1x8-400 (product of Sigma Aldrich), 33% ethanol) was added to the mixtures, and the mixtures were shaken at 4° C. for 20 minutes. Subsequently, 200 μL of MicroScint 20 (product of Packard) was added to the mixtures, and measurement was performed using a scintillation counter (Topcount, product of Packard). IC50 values were calculated using Graph Pad Prism v3.03 (product of GraphPad Software). When 1 μmol/L>the IC50 value≧0.1 μmol/L, the results were represented by “+.” When 0.1 μmol/L>the IC50 value, the results were represented by “++.”

[2] = system: total number of leukocytes in bronchoalveolar lavage fluid after LPS inhalation; assay: LPS acute inflammation model in rats; type: in vivo; settings: Rattus norvegicus, Leukocyte, po, 3 mg/kg orally one hour before LPS inhalation, total leukocytes in BALF 3 hours after LPS inhalation, read-out: Inhibition ratio
Experimental: 3 mg/kg of the compounds were orally administered to rats one hour before inhalation of lipopolysaccharide (LPS) from E. coli serotype 055:B5, rats were inhalted nebulizing LPS solution (50 mL) by nebulizer for 30 minutes. Then, 3 hours after the LPS inhalation, rats were euthanized with 20% urethane (5 ml/rat, i.p.) 5 ml of physiological saline for bronchoalveolar lavage was injected into the bronchoalveolar space through the airway, and the bronchoalveolar space was washed 3 times using a 5 mL syringe. This procedure was repeated twice, and the solution was collected as bronchoalveolar lavage fluid (BALF). The collected BALF was centrifuged at 1,200 rpm and 4° C. for 10 minutes (Hirtachi; himac CR 5 DL). The sediment was re-suspended in 10 mL of a 0.1% bovine serum albumin-physiological saline, and an equivalent amount of Turk's solution was added to the suspension to stain leukocytes. The total number of leukocytes was counted under a microscope to determine the inhibition ratio. When the inhibition ratio≧60%, the results were represented by “++.” When 60%>the inhibition ratio≧30%, the results were represented by “+.”

T1 sequence (Q07343 330-659 limits assumed): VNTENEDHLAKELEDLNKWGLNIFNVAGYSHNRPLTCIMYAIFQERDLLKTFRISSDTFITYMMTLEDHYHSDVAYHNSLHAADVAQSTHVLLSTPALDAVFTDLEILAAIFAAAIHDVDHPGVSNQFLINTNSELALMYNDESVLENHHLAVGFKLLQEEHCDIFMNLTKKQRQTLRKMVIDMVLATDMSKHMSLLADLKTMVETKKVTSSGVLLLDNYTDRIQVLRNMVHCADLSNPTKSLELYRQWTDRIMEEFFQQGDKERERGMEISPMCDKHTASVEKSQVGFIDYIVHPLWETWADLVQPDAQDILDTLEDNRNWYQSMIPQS

| SMILES | Inhibition ratio [1] | IC50 (PDE4B catalytic domain) [µmol/L] | inhibition in vivo at 3 mg/kg [2] [%] | melting point |
| --- | --- | --- | --- | --- |
| COc1ccc(C(=O)Cc2ccncc2)c2cc(C(F)(F)F)nn12 [80 (90), 1-(7-Methoxy-2-trifluoromethylpyrazolo[1,5-a]pyridin-4-yl)-2-(pyridin-4-yl)ethanone] | +++ (When the inhibition ratio≧90%, the results were represented by “+++.”) | < 0.1 |  |  |
| COc1ccc(C(O)Cc2ccncc2)c2cc(C(F)(F)F)nn12 (stereo not shown) [Example 77, 1-(7-Methoxy-2-trifluoromethylpyrazolo[1,5-a]pyridin-4-yl)-2-(pyridin-4-yl)ethanol] | + (When 70%>the inhibition ratio≧30%, the results were represented by “+.”) | 0.1 to 1 |  |  |
| COc1ccc(/C(=C/c2ccncc2)c2ccccc2)c2cc(C(F)(F)F)nn12 [Example 84, (E)-7-methoxy-4-[1-phenyl-2-(pyridin-4-yl)vinyl]-2-trifluoromethylpyrazolo[1,5-a]pyridine] |  | < 0.1 |  |  |
| COc1ccc(C(Cc2ccncc2)c2ccccc2)c2cc(C(F)(F)F)nn12 (stereo not shown) [Example 86, 7-Methoxy-4-[1-phenyl-2-(pyridin-4-yl)ethyl]-2-trifluoromethylpyrazolo[1,5-a]pyridine] |  | < 0.1 |  |  |
| COc1ccc(C(O)Cc2c(Cl)cncc2Cl)c2cc(C(F)(F)F)nn12 (stereo not shown) [Example 87, 2-(3,5-Dichloropyridin-4-yl)-1-(7-methoxy-2-trifluoromethylpyrazolo[1,5-a]pyridin-4-yl)ethanol] |  | < 0.1 |  |  |
| COc1ccc(CCc2cc[n+]([O-])cc2)c2cc(C(F)(F)F)nn12 [Example 91, 4-(2-(7-Methoxy-2-(trifluoromethyl)pyrazolo[1,5-a]pyridin-4-yl)ethyl)pyridine 1-oxide] |  | < 0.1 | ≥ 60 |  |
| COc1ccc(C(=O)Cc2c(Cl)c[n+]([O-])cc2Cl)c2cc(C(F)(F)F)nn12 [Example 92, 3,5-Dichloro-4-(2-(7-methoxy-2-(trifluoromethyl)pyrazolo[1,5-a]pyridin-4-yl)-2-oxoethyl)pyridine 1-oxide] |  | < 0.1 | ≥ 60 |  |
| COc1ccc(C(=O)Cc2cc[n+]([O-])cc2)c2cc(C(F)(F)F)nn12 [Example 93, 4-(2-(7-Methoxy-2-(trifluoromethyl)pyrazolo[1,5-a]pyridin-4-yl)-2-oxoethyl)pyridine 1-oxide] |  | < 0.1 | ≥ 60 | 157 to 161 °C (dec.) |
| COc1ccc(CCc2c(Cl)cncc2Cl)c2cc(C(F)(F)F)nn12 [Example 95, 4-(2-(3,5-Dichloropyridin-4-yl)ethyl)-7-methoxy-2-(trifluoromethyl)pyrazolo[1,5-a]pyridine] |  |  |  | 158 to 160 °C (dec.) |
| COc1ccc(C(=O)Cc2ccncc2Cl)c2cc(C(F)(F)F)nn12 [Example 97, 2-(3-Chloropyridin-4-yl)-1-(7-methoxy-2-(trifluoromethyl)pyrazolo[1,5-a]pyridin-4-yl)ethanone] |  |  |  | 188 to 191 °C |
| CNc1ccc(C(=O)Cc2c(Cl)cncc2Cl)c2cc(C(F)(F)F)nn12 [Example 99, 2-(3,5-Dichloropyridin-4-yl)-1-(7-(methylamino)-2-(trifluoromethyl)pyrazolo[1,5-a]pyridin-4-yl)ethanone] |  | < 0.1 |  | 220 to 223 °C |
| CN(C)c1ccc(C(=O)Cc2c(Cl)cncc2Cl)c2cc(C(F)(F)F)nn12 [Example 100, 2-(3,5-Dichloropyridin-4-yl)-1-(7-(dimethylamino)-2-(trifluoromethyl)pyrazolo[1,5-a]pyridin-4-yl)ethanone] |  |  |  | 234 to 238 °C |
| COc1ccc(CCc2c(Cl)cncc2Cl)c2cc(C(F)F)nn12 [Example 102, 4-(2-(3,5-Dichloropyridin-4-yl)ethyl)-2-(difluoromethyl)-7-methoxypyrazolo[1,5-a]pyridine] |  |  |  | 153 to 156 °C |
| COc1ccc(CCc2ccncc2)c2cc(C(F)F)nn12 [Example 104, 2-(Difluoromethyl)-7-methoxy-4-(2-(pyridin-4-yl)ethyl)pyrazolo[1,5-a]pyridine] |  |  |  | 121 to 123 °C |
| COc1ccc(C(=O)Cc2c(Cl)cncc2Cl)c2cc(C(F)F)nn12 [Example 107, 2-(3,5-dichloropyridin-4-yl)-1-(2-(difluoromethyl)-7-methoxypyrazolo[1,5-a]pyridin-4-yl)ethanone] |  |  |  | 208 to 211 °C (dec.) |
| COc1ccc(C(=O)Cc2c(Cl)c[n+]([O-])cc2Cl)c2cc(C(F)F)nn12 [Example 108, 3,5-Dichloro-4-(2-(2-(difluoromethyl)-7-methoxypyrazolo[1,5-a]pyridin-4-yl)-2-oxoethyl)pyridine 1-oxide] |  | < 0.1 | ≥ 60 |  |
| COc1ccc(C(=O)Cc2ccncc2)c2cc(C(F)F)nn12 [Example 109, 1-(2-(Difluoromethyl)-7-methoxypyrazolo[1,5-a]pyridin-4-yl)-2-(pyridin-4-yl)ethanone] |  |  |  | 186 to 191 °C (dec.) |
| COc1ccc(C(=O)Cc2ccncc2Cl)c2cc(C(F)F)nn12 [Example 111, 2-(3-Chloropyridin-4-yl)-1-(2-(difluoromethyl)-7-methoxypyrazolo[1,5-a]pyridin-4-yl)ethanone] |  |  |  | 191 to 194 °C (dec.) |
| COc1ccc(C(=O)Cc2ccncc2)c2cc(C3CC3)nn12 [Example 121, 1-(2-Cyclopropyl-7-methoxypyrazolo[1,5-a]pyridin-4-yl)-2-(pyridin-4-yl)ethanone] |  | < 0.1 | ≥ 60 |  |
| COc1ccc(C(=O)Cc2c(Cl)cncc2Cl)c2c(Cl)c(C3CC3)nn12 [Example 122, 1-(3-Chloro-2-cyclopropyl-7-methoxypyrazolo[1,5-a]pyridin-4-yl)-2-(3,5-dichloropyridin-4-yl)ethanone] |  | < 0.1 | ≥ 60 |  |
| CNc1ccc(C(=O)Cc2c(Cl)cncc2Cl)c2cc(C3CC3)nn12 [Example 123, 1-(2-Cyclopropyl-7-(methylamino)pyrazolo[1,5-a]pyridin-4-yl)-2-(3,5-dichloropyridin-4-yl)ethanone] |  |  |  | 196 to 200 °C |
| CN(C)c1ccc(C(=O)Cc2c(Cl)cncc2Cl)c2cc(C3CC3)nn12 [Example 124, 1-(2-Cyclopropyl-7-(dimethylamino)pyrazolo[1,5-a]pyridin-4-yl)-2-(3,5-dichloropyridin-4-yl)ethanone] |  |  |  | 216 to 220 °C |
| COc1ccc(C(=O)Cc2c(Cl)c[n+]([O-])cc2Cl)c2cc(C#N)nn12 [Example 142, 3,5-Dichloro-4-(2-(2-cyano-7-methoxypyrazolo[1,5-a]pyridin-4-yl)-2-oxoethyl)pyridine 1-oxide] |  | < 0.1 | ≥ 60 |  |
